# Reference: US11639531B2, “Composition, kit, and method for diagnosis and treatment of taxane anticancer agent-resistant cancer” (SUNGKWANG MEDICAL FOUNDATION, priority 2018, dated 2023)
# What was measured:
# Format in all cases: cell-based, human
# SKpac cells = test: WST (CCK-8) cell viability assay (miR-136); settings: PTX-alone treatment
# Method: In order to investigate the role of miR-136 in the anticancer agent-sensitivity and proliferation activity of PTX-resistant SKpac cells, cell survival rate, cell proliferation, and apoptosis analyses were performed on the SKpac cells transfected by miR-136 mimics. […] In addition, to confirm whether overexpression of miR-136 increases cell toxicity induced by PTX, degrees of apoptosis were evaluated using a TUNEL analysis. […] In collection of these experiment results, it may be known that the overexpression of miR-136, when used alone or in a combination with PTX, decreases cell viability and cell proliferation of anticancer agent-resistant ovarian cancer cells and increases apoptosis.
# SKpac-17 cells = test: Spheroid-forming assay (miR-150); settings: PTX alone-treatment
# Method: Spheroid-forming assays were performed to verify the effect of miR-150 on cancer stem cell activation. SKpac-17 cells were transfected with pre miR-150 or pre miR-negative. Cells were plated in Ultra-Low-Attachment Surface 6-well culture plates (Corning, Action, MA, USA) in serum-free DEME/F12 medium (Gibco/Life Technologies, Grand Island, N.Y., USA) supplemented with 20 ng/ml epidermal growth factor (Gibco, Carlsbad, Calif., USA), 10 ng/ml basic fibroblast growth factor (Sigma-Aldrich, St. Louis, Mo., USA), 0.4% bovine serum albumin (Sigma-Aldrich, St. Louis, Mo., USA), and 5 μg/mL insulin (Sigma-Aldrich, St. Louis, Mo., USA) at a density of 1000 cells/cm^2. Spheroid formation (of 50 to 100 cells per spheroid) was assessed 7 days after seeding.
# In order to verify the effect of miR-150 transfection on cancer stem cells (CSCs) activation, a spheroid-forming assay was performed on paclitaxel-resistant SKpac cells in this Example, and alteration of mRNA of the stemness genes was detected using real-time RT-PCR.
# [1] = test system: SKpac cells (SKpac-12, SKpac-16, and SKpac-17); test: TUNEL assay for apoptosis (miR-150); settings: 48 hours
# Method: TUNEL assays were performed after pre miR-150 transfection in SKpac-12 and SKpac-17. After 48 hours, apoptotic cells were analyzed using the In Situ Cell Death Detection kit (Roche, Mannheim, Germany). 2×10^7 cells were fixed with 75% ethanol for 2 hours at −20° C. The cells were washed twice with PBS and incubated with 0.1% Triton X-100 and 0.1% sodium citrate for 2 minutes on ice. After washing twice with PBS, the cells were incubated with a TUNEL-labelling mixture for 1 hour at 37° C. in the dark. The samples were washed twice with PBS and analyzed by fluorescence activated cell sorting (FACS) (Becton Dickinson, Franklin Lakes, N.J., USA).
# In addition, to determine the effect of miR-150 on apoptosis, the SKpac cells (SKpac-12, SKpac-16, and SKpac-17) were transfected with pre miR-150, and then a TUNEL assay was performed on the cells. […] Collectively, the pre miR-150 transfection by itself or increased a sensitivity of tumor cells with respect to PTX and thus decreased tumor cell proliferation and induced apoptosis in PTX-resistant ovarian cancer cells.
# HUVECs = test: Angiogenesis (tube formation) assay (miR-150)
# Method: Matrigel (BD Biosciences, California, USA) was placed into flat-bottom, 96-well plate and polymerized for 1 hour at 37° C. HUVECs incubated in M199 containing 1% FBS were harvested after trypsin treatment, resuspended in M199, plated onto the layer of Matrigel at a density of 1×10^4 cells/well, and the supernatant of SKpac-17 cells transfected by pre miR150 was added. After 24 hours, 48 hours, and 72 hours, tube formation was observed.
# Cell migration and angiogenesis are important factors that influence tumor progression and metastasis. In this Example, a wound healing assay and a tube formation assay were performed to examine the effect of pre miR-150 on cell migration and the effect on angiogenesis, respectively.
smiles,measurement,setting,value
"CC(=O)O[C@H]1C(=O)[C@@]2(C)[C@H]([C@H](OC(=O)c3ccccc3)[C@]3(O)C[C@H](OC(=O)[C@H](O)[C@@H](NC(=O)c4ccccc4)c4ccccc4)C(C)=C1C3(C)C)[C@]1(OC(C)=O)CO[C@@H]1C[C@@H]2O [PTX, paclitaxel]",influence on the cell viability,SKpac cells,no influence
same,spheroid formation,SKpac-17 cells,no changes
same,apoptosis of the comparison treatments,[1],3.5%
same,reduction effect (migration / tube formation),HUVECs,not observed
